Results reported in patent publication US20100248390A1, “COMPOSITIONS AND METHODS FOR IDENTIFYING LIGANDS OF ODORANT RECEPTORS” (DUKE UNIVERSITY, priority 2009, published 2010).

How the values were obtained:
MOR107-1 = test: CRE-luciferase assay of odorant receptor activation, enantiomeric pairs; format: cell-based, mouse; settings: CRE-luciferase in Hana3A cells; (+) versus (−) enantiomer; FIG. 6
Source text: (§1) Cloning mouse and human ORs. 219 mouse and 245 human odorant receptors were cloned with sequence information from The Olfactory Receptor Database (Healy et al., Chemical Senses 22, 321-6 (1997); herein incorporated by reference in its entirety). […] OR open reading frames were amplified from genomic DNA using proofreading KOD DNA polymerase (Toyobo/Novagen) and subcloned into pCI expression vectors (Promega) containing the first 20 residues of human rhodopsin (Rho tag). The sequences of the cloned receptors were verified by sequencing (3100 Genetic Analyzer, ABI Biosystems). Immunocytochemistry and FACS analysis. […] The intensity of receptor cell surface expression was calculated as the ratio of PE and GFP expression. […] Luminescence was measured using a Wallac Victor 1420 plate reader (Perkin-Elmer). All luminescence values were divided by the Renilla Luciferase activity to control for transfection efficiency in a given well. Normalized luciferase activity was calculated using the formula (LN−Lmin)/(Lmax−Lmin), where LN is the luminescence of firefly luciferase in response to the odorant, Lmin is the minimum luciferase value on a plate or set of plates, and Lmax is the maximum luciferase value on a plate or set of plates. The data was analyzed using Microsoft Excel and GraphPad Prism 4. […]

[1] = tested on: mouse odorant receptors (ORs); test: CRE-luciferase assay of odorant receptor activation (Dual-Glo, Hana3A cells, RTP1S), dose-response EC50; format: cell-based; settings: 0 = no response; for log EC50, MOR138-1: receptor MOR138-1; for log EC50, MOR139-1: receptor MOR139-1; for log EC50, MOR189-1: receptor MOR189-1; for log EC50, MOR272-1: receptor MOR272-1; for log EC50, MOR273-1: receptor MOR273-1
[2] = target: T1, mouse odorant receptors (ORs) (Mus musculus, UniProt P23275); test: as above; format: cell-based; settings: receptor MOR256-17; read-out: log EC50 of odorant at MOR256-17 (0 = no response) (converted)
T1 construct: OR open reading frames were amplified from genomic DNA; expressed in transfected cells; host or cells: Hana3A cells, co-transfected with RTP1S, CRE-luciferase and pRL-SV40
T1 sequence (P23275 1-312): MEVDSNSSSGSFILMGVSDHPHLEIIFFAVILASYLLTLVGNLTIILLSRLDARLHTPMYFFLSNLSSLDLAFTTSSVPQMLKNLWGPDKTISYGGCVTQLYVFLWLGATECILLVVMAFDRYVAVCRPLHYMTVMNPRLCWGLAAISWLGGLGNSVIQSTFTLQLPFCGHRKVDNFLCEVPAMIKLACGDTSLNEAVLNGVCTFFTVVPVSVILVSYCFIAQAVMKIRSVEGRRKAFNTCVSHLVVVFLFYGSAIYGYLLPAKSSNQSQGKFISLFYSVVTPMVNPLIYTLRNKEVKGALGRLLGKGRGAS

[3] = target: T2, human odorant receptors (ORs) (Homo sapiens, UniProt Q8NHC4); test: as above; format: cell-based; settings: receptor OR10J5; read-out: log EC50 of odorant at OR10J5 (0 = no response) (converted)
T2 construct: OR open reading frames were amplified from genomic DNA; expressed in transfected cells; host or cells: Hana3A cells, co-transfected with RTP1S, CRE-luciferase and pRL-SV40
T2 sequence (Q8NHC4 1-309): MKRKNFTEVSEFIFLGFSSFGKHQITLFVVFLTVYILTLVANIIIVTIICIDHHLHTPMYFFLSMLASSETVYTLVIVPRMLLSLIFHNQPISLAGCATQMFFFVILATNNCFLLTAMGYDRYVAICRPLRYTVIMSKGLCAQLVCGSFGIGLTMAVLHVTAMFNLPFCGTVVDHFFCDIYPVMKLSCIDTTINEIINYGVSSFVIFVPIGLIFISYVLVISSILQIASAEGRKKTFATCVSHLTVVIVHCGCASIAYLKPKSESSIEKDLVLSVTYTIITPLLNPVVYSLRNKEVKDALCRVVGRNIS
Outline: (§2)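 Hana3A cells were co-transfected with Rho-tagged OR, RTP1S, CRE-luciferase and pRL-SV40, then exposed to odorant in CD293 medium for 4 hrs at 37° C. Firefly luminescence was divided by Renilla and normalized as (LN−Lmin)/(Lmax−Lmin) per plate set. Each dose was tested at least three times, and EC50 came from sigmoidal fits.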

MOR271-1 = test: CRE-luciferase assay of odorant receptor activation, enantiomeric pairs; format: cell-based, mouse; settings: CRE-luciferase in Hana3A cells; (+) versus (−) enantiomer; FIG. 6
Source text: as §1

MOR2-1 = test: as above; format: cell-based, mouse; settings: CRE-luciferase in Hana3A cells; at some doses; compared with the other enantiomer; FIG. 6
Source text: OR open reading frames were amplified from genomic DNA using proofreading KOD DNA polymerase (Toyobo/Novagen) and subcloned into pCI expression vectors (Promega) containing the first 20 residues of human rhodopsin (Rho tag). The sequences of the cloned receptors were verified by sequencing (3100 Genetic Analyzer, ABI Biosystems). Immunocytochemistry and FACS analysis. […] For FACS analysis, phycoerythrin (PE)-conjugated anti-mouse IgG (Jackson Immunologicals) was used. In order to monitor the transfection efficiency, Green Fluorescent Protein (GFP) was co-transfected with the OR. The intensity of receptor cell surface expression was calculated as the ratio of PE and GFP expression. 7-aminoactinomycin D (Calbiochem) was added before flow cytometry to mark dead cells which were excluded from the analysis. The gate and mean of PE positive cells was normalized by GFP values. Luciferase assay. […] All luminescence values were divided by the Renilla Luciferase activity to control for transfection efficiency in a given well. […] Each comparison was performed in triplicate; statistical significance was assessed by t-test (uncorrected for multiple comparisons). […] For all remaining odorant pairs the Pearson correlation between EC50 vectors and the Euclidean distance between descriptor vectors was calculated. The Pearson correlation between these two sets of distances was then measured. […]

[4] = target: T3, human odorant receptors (ORs) (Homo sapiens, UniProt Q9H255); test: CRE-luciferase assay of odorant receptor activation (Dual-Glo, Hana3A cells, RTP1S), dose-response EC50; format: cell-based; settings: receptor OR51E2; read-out: log EC50 of odorant at OR51E2 (0 = no response) (converted)
T3 construct: OR open reading frames were amplified from genomic DNA; expressed in transfected cells; host or cells: Hana3A cells, co-transfected with RTP1S, CRE-luciferase and pRL-SV40
T3 sequence (Q9H255 1-320): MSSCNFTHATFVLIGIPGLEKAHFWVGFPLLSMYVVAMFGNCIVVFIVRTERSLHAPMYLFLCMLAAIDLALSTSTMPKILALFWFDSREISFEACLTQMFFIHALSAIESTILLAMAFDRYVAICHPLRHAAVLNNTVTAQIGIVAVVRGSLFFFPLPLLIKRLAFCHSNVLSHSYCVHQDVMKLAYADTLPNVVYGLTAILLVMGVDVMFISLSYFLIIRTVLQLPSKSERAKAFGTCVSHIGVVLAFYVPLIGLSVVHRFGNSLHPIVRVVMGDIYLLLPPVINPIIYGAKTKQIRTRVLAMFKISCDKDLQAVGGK
Outline: as §2

Structure (SMILES): CC1(C)C(=O)[C@]2(C)CCC1C2 (single isomer, unassigned; (-)) [(−) enantiomer of fenchone, (−)-Fenchone]
- activation of MOR107-1 (MOR107-1): activated only by the (−) enantiomer
- log EC50, MOR107-1 ([1]; receptor MOR107-1): −4.302
- log EC50, MOR138-1 [1]: −4.481
- log EC50, MOR139-1 [1]: −3.879
- log EC50, MOR189-1 [1]: −4.239
- log EC50, MOR272-1 [1]: −3.558
- log EC50, MOR273-1 [1]: −5.231

Structure (SMILES): CC(C)(O)CCCC1=CCC(C=O)CC1 (stereo not shown) [Lyral]
- EC50 [2]: 55.6 µM
- EC50 [3]: 324 µM

Structure (SMILES): CC1(C)C(=O)[C@@]2(C)CCC1C2 (single isomer, unassigned; (+)) [(+) enantiomer of fenchone, (+)-Fenchone]
- activation of MOR271-1 (MOR271-1): only activated by the (+) enantiomer
- log EC50, MOR138-1 [1]: −4.626
- log EC50, MOR139-1 [1]: −3.773
- log EC50, MOR189-1 [1]: −4.423
- log EC50, MOR271-1 ([1]; receptor MOR271-1): −4.859
- log EC50, MOR272-1 [1]: −4.35
- log EC50, MOR273-1 [1]: −4.073

Structure (SMILES): CCC(C(=O)O)c1ccccc1 (single isomer, unassigned; (+)) [(+) enantiomer of 2-phenylbutyric acid, (+)-2-Phenylbutyric acid]
- response of MOR2-1 (MOR2-1): responded more strongly
- log EC50, MOR2-1 ([1]; receptor MOR2-1): −3.499

Structure (SMILES): CCC(=O)O [Propionic acid]
- EC50 [4]: 109 µM
